The values below come from patent publication EP1218024B1, “ASPARTAME DERIVATIVES FOR DECREASING BLOOD VISCOSITY” (Oklahoma Medical Research Foundation, priority 1999, dated 2001).

Structures are written as SMILES. Where a SMILES comes first, the peptide text is derived from it.

Test [1] concerns whole blood viscosity. Nature of the test: Whole blood viscosity by RBC pipette method, before and after oral APM administration to patients. The test is classed as in vivo. On the procedure:
Blood samples were obtained from ten patients having homozygous HgBss disease or heterozygous Hgbsc disease before and after a blinded administration of APM at 1.5 (low dose), 3 (medium dose), or 6 (high dose) milligrams per kilogram body weight. TABLE I: Patient Characteristics
Viscosity determinations using the RBC pipette method of Wright and Jenkins (1970, Blood 36:516) were made on each blinded whole blood sample before and 120 minutes after blinded administration of APM. Each measurement was made in triplicate. Control viscosity measurements using saline and water for each patient and normal whole blood were also made to validate the viscosity measurements.
(§1) To measure viscosity, 1.01 cc of the test fluid, i.e., either water, saline or blood, was drawn into an RBC pipette using a 50 cc syringe attached via rubber tubing to the top of the RBC pipette. Using a constant pressure of 20 mm by maintaining the pressure with visual feedback and hand pressure, the amount of time it took for the test fluid to drip out of the RBC pipette was measured with a stopwatch. Each measurement was made in triplicate. Changes in viscosity from baseline for patient blood samples were recorded and compared to normal controls.

Test [2] concerns whole blood viscosity. Briefly: Whole blood viscosity by RBC pipette method after in vitro addition of APM to patient blood samples. On the set-up: species or system patients. Particulars: for viscosity of the blood samples compared to the control: samples at 480 minutes post-treatment, additional 1 or 2 milligrams/milliliter APM in vitro. On the procedure: as §1
Samples with high viscosity readings at 480 minutes or 1,440 minutes post-treatment, chosen to represent patients with a validated response to APM who were returning to normal, were divided and treated with an additional 0, 1, or 2 milligrams/milliliter APM in vitro, in an effort to measure whether a second inducible sickling response was possible and if a second response to the in vitro APM addition could be observed. The viscosity of each sample at 480 minutes post-treatment was measured.

In another test the test system is sickle cells. Nature of the test: Metabisulfite slide test to measure sickling in blood samples. The test is classed as cell-based, patients.
The conditions of test [3]: clinical trial; unknown mechanism; cited from earlier work.
Test [4] relates to red blood cells containing HbS. The following applies: disclosed in WO 00/18418; cited from earlier work.
Where [5] appears, read: all ten patients, baseline vs 120 minutes post-treatment, APM 1.5, 3 or 6 mg/kg body weight.

Turning to `COC(=O)[C@H](Cc1ccccc1)NC(=O)[C@@H](N)CC(=O)O` [APM, N-L-alpha-aspartyl-L-phenylalanine 1-methyl ester] (H-Asp-Phe-OMe), the “viscosity of HgBss blood” value with whole blood viscosity [1] (APM given orally) and in the test with whole blood viscosity [2] (addition of APM in vitro) was “reduces” in each case. Moreover, the “effect on Hgbsc blood” value with whole blood viscosity [1] (APM in vivo) and in the test with whole blood viscosity [2] (APM in vitro) was “not affected” throughout. The “No. of Patients, Viscosity change decreasing, HgBss” value with whole blood viscosity [1] (HgBss patients, baseline vs 120 minutes post-treatment) came out at 5. Also, the “No. of Patients, Viscosity change increasing, Hgbsc” value in the test on whole blood viscosity [1] (Hgbsc patients, baseline vs 120 minutes post-treatment) is recorded as 3. In the test with whole blood viscosity [1] (setting [5]), the “No. of Patients, Viscosity change decreasing” value is listed as 7. For the same compound, in the test with whole blood viscosity [1] (setting [5]), the “No. of Patients, Viscosity change increasing” value stood at 3. In addition, the “viscosity compared against Pirofsky's change in viscosity vs. hematocrit standard” value with whole blood viscosity [1] (blood samples from patients with sickle cell disease (HgBss)) is “decreased”; in the test on whole blood viscosity [1] (blood samples from patients with sickle cell trait (Hbgsc)) it was “increased”. Also, the “blood viscosity after treatment over time” value is recorded as “decreased” in the test with whole blood viscosity [1] (five patients identified as HgBss, baseline vs 120 minutes post-treatment) and “decreased” in the test with whole blood viscosity [1] (two patients diagnosed as sbthal, baseline vs 120 minutes post-treatment). The “No. of Patients, Viscosity change decreasing, sbthal” value in the test on whole blood viscosity [1] (sbthal patients, baseline vs 120 minutes post-treatment) was found to be 2. Also, the “viscosity after treatment over time” value in the test on whole blood viscosity [1] (three patients diagnosed as Hgbsc, baseline vs 120 minutes post-treatment) is reported as “increased”. The entries for the “viscosity of the blood samples compared to the control” value in the test with whole blood viscosity [2] (HgBss patients) and in the test on whole blood viscosity [2] (Hgbsc patients) were “decreased” and “increase”, respectively. In addition, the “number of sickle cells in HgBss blood” value in the test with sickle cells (APM given orally) and in the test with sickle cells (addition of APM in vitro) was “reduces” throughout. Besides, the “pain and inflammation of osteo- and mixed osteo- and rheumatoid arthritis” value in test [3] is listed as “alleviate”. In test [4], the “capacity of red blood cells containing HbS to sickle with hypoxemia” value was “reduction”.
